# Tests used:
# [1] = Acute toxicity studies in mice; details: mouse, in vivo, ip, intraperitoneally
# Protocol: In acute toxicity studies in mice, 1,2,3,4-tetrahydrobenzo[b]thieno[2,3-c]pyridine yields LD50 values in excess of 100 mg/kg when administered intraperitoneally and 100 mg/kg when administered by the oral route.
# [2] = Food intake in food-deprived rats after ip injection (Example 1); type: in vivo; details: for Post-Drug Food Intake, 0-1 hr / Post-Drug Food Intake, 1-2 hr / Post-Drug Food Intake, 2-6 hr / Post-Drug Food Intake, 6-8 hr / Post-Drug Food Intake, 8-24 hr / Cumulative Food Intake, 1 hr / Cumulative Food Intake, 2 hr / Cumulative Food Intake, 6 hr / Cumulative Food Intake, 8 hr / Cumulative Food Intake, 24 hr: mean ± SD; for Post-Drug Food Intake, 0-1 hr / Cumulative Food Intake, 1 hr: control 5.3 ± 1.3; for Post-Drug Food Intake, 1-2 hr: control 0.6 ± 0.7; for Post-Drug Food Intake, 2-6 hr: control 2.5 ± 1.6; for Post-Drug Food Intake, 6-8 hr: control 2.0 ± 1.0; for Post-Drug Food Intake, 8-24 hr: control 20.8 ± 1.7; for Cumulative Food Intake, 2 hr: control 5.9 ± 1.2; for Cumulative Food Intake, 6 hr: control 8.4 ± 0.9; for Cumulative Food Intake, 8 hr: control 10.4 ± 1.6; for Cumulative Food Intake, 24 hr: control 31.2 ± 2.1
# Protocol: Forty-eight 70-to-80-day-old male rats (Bantin & Kingman, Fremont, Calif.) were housed singly in suspended cages, and were acclimated to the laboratory setting for a period of 12 days prior to testing. During this time, they were allowed ad libitum access to food (Ralston-Purina #5001M) and water. The room was kept at 24°-27° C. and maintained on a 12:12-hr light:dark schedule (0700-1900 h).
# Animals matched by body weight and mean daily food intake were assigned to 4 groups (n=12/group). Food jars were removed at 0900 h. Twenty-four hours later, rats were injected with either sterile 0.9% saline or saline containing 1,2,3,4-tetrahydrobenzo[b]thieno[2,3-c]pyridine HCl (5, 10, or 25 mg/kg, ip). Pre-weighed food jars containing meal (Ralston-Purina #5001M) were presented immediately post-injection. These were weighed at intervals over the next 24 hours, and food consumption was calculated for each interval. Animals were provided with water in quantities sufficient for ad libitum consumption throughout the experiment.
# To assess the duration of the drug-induced anorexia and rebound feeding behavior, food intake was measured at several time intervals after drug administration.
# [3] = Alteration of macronutrient preference in rats, 75% or 25% carbohydrate test diets (Example 2); type: in vivo, rats (Sprague-Dawley); details: rat; for cumulative amount of 25% Carbohydrate diet consumed, 1 hr / cumulative amount of 25% Carbohydrate diet consumed, 2 hr / cumulative amount of 75% Carbohydrate diet consumed, 1 hr / cumulative amount of 75% Carbohydrate diet consumed, 2 hr: mean±SEM; for cumulative amount of 25% Carbohydrate diet consumed, 1 hr: saline 6.4 ± 0.5; for cumulative amount of 25% Carbohydrate diet consumed, 2 hr: saline 7.5 ± 1.7; for cumulative amount of 75% Carbohydrate diet consumed, 1 hr: saline 6.6 ± 0.5; for cumulative amount of 75% Carbohydrate diet consumed, 1 hr / cumulative amount of 75% Carbohydrate diet consumed, 2 hr: significant p < 0.01; for cumulative amount of 75% Carbohydrate diet consumed, 2 hr: saline 8.4 ± 1.6
# Protocol: Sixty adult male rats (Sprague-Dawley, 225-300 g) were acclimated to laboratory conditions for a period of 10 days, during which they were allowed unrestricted access to food (Ralston-Purina #5001M) and water. All subjects were housed in individual cages, and the animal facility was maintained on a 12:12 hour light:dark cycle at 24°-27° C.
# Animals were assigned to 6 groups (10 per group), then allowed to consume, ad libitum, one of two iso-nitrogenous test diets containing either 75% or 25% carbohydrate. After 3 days, food jars were removed. After an additional 24 hours, rats were administered either saline or 1,2,3,4-tetrahydrobenzo[b]thieno[2,3-c]pyridine (1.5 or 3.0 mg/Kg body weight), then given immediate access to the test diets. Data listed in Table 3 indicate the cumulative amount in grams (mean±SEM) of each diet consumed by the experimental and control groups during the subsequent 2-hour period.
# [4] = U.S. Pat. Nos. 3,636,218; 3,518,278; Miller et al; cited from earlier work
# [5] = in vivo; cited from earlier work
# [6] = rat, 5 mg/Kg ip, significant p < 0.02
# [7] = rat, 10 mg/Kg ip, significant p < 0.02
# [8] = rat, 25 mg/Kg ip, significant p < 0.05
# [9] = rat, 25 mg/Kg ip, significant p < 0.02
smiles,measurement,setting,value
"c1ccc2c3c(sc2c1)CNCC3 [1,2,3,4-tetrahydrobenzo[b]thieno[2,3-c]pyridine]",LD50,[1],> 100 mg/kg
same,"Post-Drug Food Intake, 0-1 hr","[2]; rat, 5 mg/Kg ip, significant p < 0.05",1.3 ± 0.6 gm
same,"Post-Drug Food Intake, 1-2 hr","[2]; rat, 5 mg/Kg ip",1.2 ± 0.6 gm
same,"Post-Drug Food Intake, 2-6 hr","[2]; rat, 5 mg/Kg ip",4.9 ± 1.6 gm
same,"Post-Drug Food Intake, 6-8 hr","[2]; rat, 5 mg/Kg ip",1.8 ± 1.3 gm
same,"Post-Drug Food Intake, 8-24 hr","[2]; rat, 5 mg/Kg ip",18.2 ± 1.9 gm
same,"Cumulative Food Intake, 1 hr",[2]; [6],1.3 ± 0.6 gm
same,"Cumulative Food Intake, 2 hr",[2]; [6],2.5 ± 0.7 gm
same,"Cumulative Food Intake, 6 hr","[2]; rat, 5 mg/Kg ip",7.4 ± 1.6 gm
same,"Cumulative Food Intake, 8 hr","[2]; rat, 5 mg/Kg ip",9.2 ± 1.6 gm
same,"Cumulative Food Intake, 24 hr","[2]; rat, 5 mg/Kg ip",27.4 ± 2.8 gm
same,food consumption in rats,"[2]; rat, 5 mg/kg intraperitoneally",significantly reduce food consumption in rats
same,"Post-Drug Food Intake, 0-1 hr","[2]; rat, 10 mg/Kg ip, significant p < 0.05",0.9 ± 0.9 gm
same,"Post-Drug Food Intake, 1-2 hr","[2]; rat, 10 mg/Kg ip",1.1 ± 0.8 gm
same,"Post-Drug Food Intake, 2-6 hr","[2]; rat, 10 mg/Kg ip",4.3 ± 1.8 gm
same,"Post-Drug Food Intake, 6-8 hr","[2]; rat, 10 mg/Kg ip",1.4 ± 0.6 gm
same,"Post-Drug Food Intake, 8-24 hr","[2]; rat, 10 mg/Kg ip",19.2 ± 2.8 gm
same,"Cumulative Food Intake, 1 hr",[2]; [7],0.9 ± 0.9 gm
same,"Cumulative Food Intake, 2 hr",[2]; [7],2.0 ± 1.1 gm
same,"Cumulative Food Intake, 6 hr","[2]; rat, 10 mg/Kg ip",6.3 ± 2.3 gm
same,"Cumulative Food Intake, 8 hr","[2]; rat, 10 mg/Kg ip",7.7 ± 2.5 gm
same,"Cumulative Food Intake, 24 hr",[2]; [7],26.8 ± 2.8 gm
same,"Post-Drug Food Intake, 0-1 hr",[2]; [8],0.1 ± 0.2 gm
same,"Post-Drug Food Intake, 1-2 hr","[2]; rat, 25 mg/Kg ip",0.1 ± 0.2 gm
same,"Post-Drug Food Intake, 2-6 hr","[2]; rat, 25 mg/Kg ip",2.1 ± 2.3 gm
same,"Post-Drug Food Intake, 6-8 hr","[2]; rat, 25 mg/Kg ip",0.9 ± 0.7 gm
same,"Post-Drug Food Intake, 8-24 hr",[2]; [8],17.1 ± 2.1 gm
same,"Cumulative Food Intake, 1 hr",[2]; [9],0.1 ± 0.2 gm
same,"Cumulative Food Intake, 2 hr",[2]; [9],0.2 ± 0.3 gm
same,"Cumulative Food Intake, 6 hr",[2]; [9],2.2 ± 2.4 gm
same,"Cumulative Food Intake, 8 hr",[2]; [9],3.0 ± 2.6 gm
same,"Cumulative Food Intake, 24 hr",[2]; [9],20.1 ± 2.6 gm
same,cumulative food intake at 24 hours vs controls,"[2]; rat, 25 mg/kg ip, 24 hours",substantially lower cumulative food intake at 24 hours post-injection than controls
same,"food consumption, dose relation","[2]; rat, 5, 10, 25 mg/kg ip",dose-related decrement in food consumption
same,rebound feeding in the 1-6 hr interval,"[2]; rat, 5 and 10 mg/kg ip, not statistically significant",varying degrees of rebound feeding
same,food intake at 2 hours post-injection vs control,"[2]; rat, all experimental groups (5, 10, 25 mg/kg ip), 2 hours",significantly lower than control values
same,food intake in the first hour after drug administration,"[2]; rat, ip, first hour",highly significant fall in food intake
same,"cumulative amount of 25% Carbohydrate diet consumed, 1 hr",[3]; 1.5 mg/Kg,5.6 ± 0.3 grams
same,"cumulative amount of 25% Carbohydrate diet consumed, 2 hr",[3]; 1.5 mg/Kg,7.6 ± 1.0 grams
same,"cumulative amount of 75% Carbohydrate diet consumed, 1 hr",[3]; 1.5 mg/Kg,4.4 ± 0.2 grams
same,"cumulative amount of 75% Carbohydrate diet consumed, 2 hr",[3]; 1.5 mg/Kg,5.8 ± 0.8 grams
same,"cumulative amount of 25% Carbohydrate diet consumed, 1 hr",[3]; 3.0 mg/Kg,5.4 ± 0.3 grams
same,"cumulative amount of 25% Carbohydrate diet consumed, 2 hr",[3]; 3.0 mg/Kg,7.0 ± 1.1 grams
same,"cumulative amount of 75% Carbohydrate diet consumed, 1 hr",[3]; 3.0 mg/Kg,4.5 ± 0.2 grams
same,"cumulative amount of 75% Carbohydrate diet consumed, 2 hr",[3]; 3.0 mg/Kg,6.0 ± 1.3 grams
same,consumption of low carbohydrate diet vs controls,"[3]; 1.5 or 3.0 mg/Kg, 25% carbohydrate",consumed equivalent quantities of the low carbohydrate diet
same,consumption of high carbohydrate diet vs controls,"[3]; 1.5 or 3.0 mg/Kg, 75% carbohydrate",consumed significantly less of the high carbohydrate diet than did controls
same,central nervous system depression,[4],CNS depressants and tranquilizing agents
O=C(NCCN1CCOCC1)c1sc2ccccc2c1Br [3-bromo-2-(N-morpholinoethyl)benzo[b]thiophene carboximide],anticonvulsant properties,[5],anticonvulsant properties
same,antidepressant activity,[5],antidepressant activity
